Earlier results as cited in patent publication US9820991B2, “Pharmaceutical composition comprising brinzolamide” (SENTISS PHARMA PVT. LTD., priority 2013, dated 2017).

Details: in tear fluid

solubility: around 0.08%
SMILES: CCN[C@H]1CN(CCCOC)S(=O)(=O)c2sc(S(N)(=O)=O)cc21 [brinzolamide, (R)-(+)-4-Ethylamino-2-(3-methoxypropyl)-3,4-dihydro-2H-thieno [3,2-e]-1,2-thiazine-6-sulfonamide-1,1-dioxide]
